The source of these data is article PMC12110821, “Polyphyllin I Inhibits the Metastasis of Cervical Cancer Through the Regulation of the β-Catenin Signaling Pathway” (International Journal of Molecular Sciences, 2025).

This assay concerns the target T1, β-catenin (Homo sapiens, UniProt P35222).
T1 construct: gene CTNNB1; β-catenin protein (11279-H20B, Sinobiological)
T1 sequence (P35222 2-781): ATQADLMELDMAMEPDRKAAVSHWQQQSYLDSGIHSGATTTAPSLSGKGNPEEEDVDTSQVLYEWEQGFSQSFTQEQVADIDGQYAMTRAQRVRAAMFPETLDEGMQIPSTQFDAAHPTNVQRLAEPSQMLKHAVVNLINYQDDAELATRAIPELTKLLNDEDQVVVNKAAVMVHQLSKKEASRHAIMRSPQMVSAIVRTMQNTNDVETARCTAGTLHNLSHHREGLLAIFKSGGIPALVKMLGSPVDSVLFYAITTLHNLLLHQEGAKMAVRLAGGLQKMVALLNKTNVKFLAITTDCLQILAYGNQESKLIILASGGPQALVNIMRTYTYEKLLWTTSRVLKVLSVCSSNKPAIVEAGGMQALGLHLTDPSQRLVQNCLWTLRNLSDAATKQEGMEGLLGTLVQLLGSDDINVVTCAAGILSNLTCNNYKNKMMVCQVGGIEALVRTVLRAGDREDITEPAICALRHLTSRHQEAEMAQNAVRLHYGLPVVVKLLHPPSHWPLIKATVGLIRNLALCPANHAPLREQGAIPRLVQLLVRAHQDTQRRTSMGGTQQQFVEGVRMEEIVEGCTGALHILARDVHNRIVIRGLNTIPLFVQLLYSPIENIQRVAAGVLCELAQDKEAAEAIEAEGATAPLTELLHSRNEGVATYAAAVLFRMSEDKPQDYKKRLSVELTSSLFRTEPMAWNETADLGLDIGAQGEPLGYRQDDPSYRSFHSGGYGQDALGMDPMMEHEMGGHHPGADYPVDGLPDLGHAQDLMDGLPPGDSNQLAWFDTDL
The assay is described as follows: SPR (Biacore T200, CM5 chip, amine-coupled β-catenin); supported by CETSA in HO-8910PM lysate. Type of assay: binding. (In general: SPR reads the build-up and loss of mass on a sensor chip optically.)

Broadly, the Kd is the concentration at which binding is half-saturated. The molecule `C[C@@H]1CC[C@@]2(OC1)O[C@H]1C[C@H]3[C@@H]4CC=C5C[C@@H](O[C@@H]6O[C@H](CO)[C@@H](O[C@@H]7O[C@@H](CO)[C@H](O)[C@H]7O)[C@H](O)[C@H]6O[C@@H]6O[C@@H](C)[C@H](O)[C@@H](O)[C@H]6O)CC[C@]5(C)[C@H]4CC[C@]3(C)[C@H]1[C@@H]2C` [PPI, Polyphyllin I] returned a Kd of 2200 nM.
